Patent US20130156825A1, “Modafinil Formulations” (CEPHALON, INC., priority 2002, published 2013)

Columns and labels:
[1] = PSD of modafinil used to prepare the modafinil tablets; type: physicochemical; settings: modafinil used for 200 mg tablets, method not stated
Procedure: Tablets containing 200 mg of modafinil having PSD as provided in table 2 below (values are in microns) were prepared: […]

[2] = '517 U.S. Patent; cited from earlier work
[3] = PSD of modafinil particles, Hiac/Royco light obscuration; type: physicochemical; settings: Hiac
Procedure: (§1) Modafinil PSD was measured in '517 U.S. patent by using a Hiac/Royco machine. This machine uses a light obscuration technique for the PSD measurement. We repeated the measurements of the PSD on a Hiac/Royco machine and compared it with a different laser beam obscuration technique offered by the commonly used Malvern machine. Both methods use light obscuration as means to evaluate the PSD, but they work on different principles. The results confirmed the validity of our PSD measurements. Both methods gave similar values. Both methods also gave PSD results that are far away from the scope of the values claimed by the '517 U.S. Patent. The following table summarizes the data. Values are reported in microns. The term D(v,0.5) denotes the diameter of the largest particle found in 50% of the particles sorted in increasing order. The other two terms refer to 85% and 95% of the particles. The terms mean, median and mode are used in their regular statistical meaning.

[4] = PSD of modafinil particles, Malvern laser technique; type: physicochemical
Procedure: as §1

NC(=O)C[S+]([O-])C(c1ccccc1)c1ccccc1 (centres unmarked) [Batch D, 2-[(diphenylmethyl)sulfinyl]acetamide]
D(v, 0.5) ([1]; listed as D): 95 microns
D(v, 0.85) ([1]; listed as D): 217 microns
D(v, 0.95) ([1]; listed as D): 297 microns
Median ([1]; listed as D): 95 microns

NC(=O)C[S+]([O-])C(c1ccccc1)c1ccccc1 (centres unmarked) [“late” batches]
median value of modafinil particles [2]: 31-50 μ
size below which 95% of the particles lie [2]: 110-150 μ

NC(=O)C[S+]([O-])C(c1ccccc1)c1ccccc1 (centres unmarked) [Batch C, 2-[(diphenylmethyl)sulfinyl]acetamide]
D(v, 0.5) ([3]; listed as C): 148 microns
D(v, 0.85) ([3]; listed as C): 231 microns
D(v, 0.95) ([3]; listed as C): 277 microns
Mean particle size ([3]; listed as C): 51 microns
Median particle size ([3]; listed as C): 148 microns
mode particle size ([3]; listed as C): 193 microns
D(v, 0.5) ([4]; listed as C): 128 microns
D(v, 0.85) ([4]; listed as C): 228 microns
D(v, 0.95) ([4]; listed as C): 303 microns
Median particle size ([4]; listed as C): 128 microns
D(v, 0.5) ([1]; listed as C): 128 microns
D(v, 0.85) ([1]; listed as C): 228 microns
D(v, 0.95) ([1]; listed as C): 303 microns
Median ([1]; listed as C): 128 microns

NC(=O)C[S+]([O-])C(c1ccccc1)c1ccccc1 (centres unmarked) [Batch B, 2-[(diphenylmethyl)sulfinyl]acetamide]
D(v, 0.5) ([3]; listed as B): 103 microns
D(v, 0.85) ([3]; listed as B): 194 microns
D(v, 0.95) ([3]; listed as B): 265 microns
Mean particle size ([3]; listed as B): 40 microns
Median particle size ([3]; listed as B): 104 microns
mode particle size ([3]; listed as B): 148 microns
D(v, 0.5) ([4]; listed as B): 85 microns
D(v, 0.85) ([4]; listed as B): 215 microns
D(v, 0.95) ([4]; listed as B): 293 microns
Median particle size ([4]; listed as B): 85 microns
D(v, 0.5) ([1]; listed as B): 85 microns
D(v, 0.85) ([1]; listed as B): 215 microns
D(v, 0.95) ([1]; listed as B): 293 microns
Median ([1]; listed as B): 85 microns

NC(=O)C[S+]([O-])C(c1ccccc1)c1ccccc1 (centres unmarked) [“early” batches]
median value of modafinil particles [2]: 94-143 μ
size below which 95% of the particles lie [2]: 220-280 μ

NC(=O)C[S+]([O-])C(c1ccccc1)c1ccccc1 (centres unmarked) [Batch A, 2-[(diphenylmethyl)sulfinyl]acetamide]
D(v, 0.5) ([3]; listed as A): 133 microns
D(v, 0.85) ([3]; listed as A): 229 microns
D(v, 0.95) ([3]; listed as A): 282 microns
Mean particle size ([3]; listed as A): 51 microns
Median particle size ([3]; listed as A): 134 microns
mode particle size ([3]; listed as A): 196 microns
D(v, 0.5) ([4]; listed as A): 107 microns
D(v, 0.85) ([4]; listed as A): 235 microns
D(v, 0.95) ([4]; listed as A): 318 microns
Median particle size ([4]; listed as A): 107 microns
D(v, 0.5) ([1]; listed as A): 107 microns
D(v, 0.85) ([1]; listed as A): 235 microns
D(v, 0.95) ([1]; listed as A): 318 microns
Median ([1]; listed as A): 107 microns
